Assay results from ChEMBL document CHEMBL1629630, “Inhibition of inositol phosphorylceramide synthase by the cyclic peptide aureobasidin A” (Antimicrob Agents Chemother, 2009).
Where “and” joins values, the source holds several entries; their conditions need not be identical. Equal entries are not always repeated. Calls of active or inactive are those of the source. The rule behind the calls is not given here. Numbered stars: 1 amine (or outer) side, 2 acyl side, 3 side chain; on linkers, the order of the positions; unused ones are H or OH. Square brackets hold non-standard residues; d marks the D form. Peptide text beside a SMILES is read from it. X1 = CC[C@@H](C)[C@@H](O[*:1])C(=O)[*:2]; NMeVal(β-OH) = CN[C@H](C(=O)O)C(C)(C)O; NMeF = CN[C@@H](Cc1ccccc1)C(=O)O; aIle = CC[C@@H](C)[C@H](N)C(=O)O; NMeV = CN[C@H](C(=O)O)C(C)C

Experiments:
[1] = target: T1, Inositol phosphorylceramide synthase (Candida albicans (strain SC5314 / ATCC MYA-2876) (Yeast), UniProt O13332)
T1 sequence (O13332 whole entry): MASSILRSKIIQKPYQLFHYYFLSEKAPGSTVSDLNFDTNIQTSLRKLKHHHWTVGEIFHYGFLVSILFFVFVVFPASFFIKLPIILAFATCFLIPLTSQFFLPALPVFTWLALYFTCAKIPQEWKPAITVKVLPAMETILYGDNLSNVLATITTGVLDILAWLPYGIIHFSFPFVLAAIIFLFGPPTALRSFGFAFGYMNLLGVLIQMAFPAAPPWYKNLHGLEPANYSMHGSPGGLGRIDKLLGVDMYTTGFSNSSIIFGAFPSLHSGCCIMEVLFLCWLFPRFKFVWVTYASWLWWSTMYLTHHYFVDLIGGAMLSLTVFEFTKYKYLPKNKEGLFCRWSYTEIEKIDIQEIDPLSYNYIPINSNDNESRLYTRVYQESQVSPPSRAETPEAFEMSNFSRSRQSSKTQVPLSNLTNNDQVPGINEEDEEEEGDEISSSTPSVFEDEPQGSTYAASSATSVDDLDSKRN
Description: (§1) Inhibition of Candida albicans ATCC 38247 inositol phosphorylceramide synthase preincubated for 30 mins

[2] = target: T2, Inositol phosphorylceramide synthase (Candida albicans (strain SC5314 / ATCC MYA-2876) (Yeast)) (UniProt O13332); assay: Inhibition of Candida albicans ATCC 38247 inositol phosphorylceramide synthase; details: TDE = time-dependent effect
T2 sequence (whole entry): T1 sequence (O13332 whole entry)

[3] = target: T3, Inositol phosphorylceramide synthase catalytic subunit AUR1 (Saccharomyces cerevisiae S288c, UniProt P36107); assay: Inhibition of Saccharomyces cerevisiae SJ21R inositol phosphorylceramide synthase preincubated for 30 mins
T3 sequence (P36107 whole entry): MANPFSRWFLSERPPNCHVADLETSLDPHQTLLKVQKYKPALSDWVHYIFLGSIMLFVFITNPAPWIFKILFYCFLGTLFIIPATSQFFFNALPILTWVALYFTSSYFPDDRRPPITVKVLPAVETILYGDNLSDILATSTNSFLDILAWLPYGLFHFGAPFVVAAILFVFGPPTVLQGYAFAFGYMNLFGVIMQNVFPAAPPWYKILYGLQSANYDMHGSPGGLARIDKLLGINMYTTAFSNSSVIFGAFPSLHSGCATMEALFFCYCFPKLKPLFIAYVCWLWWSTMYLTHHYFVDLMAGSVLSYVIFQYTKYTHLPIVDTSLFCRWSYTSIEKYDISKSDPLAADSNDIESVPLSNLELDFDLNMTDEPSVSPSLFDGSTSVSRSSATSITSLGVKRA

[4] = target: Inositol phosphorylceramide synthase catalytic subunit AUR1 (Saccharomyces cerevisiae S288c, UniProt P36107); assay: Inhibition of aureobasidin A-resistant Saccharomyces cerevisiae inositol phosphorylceramide synthase preincubated for 30 mins
[5] = target: T1, Inositol phosphorylceramide synthase; assay: Inhibition of Candida albicans inositol phosphorylceramide synthase
[6] = target: T3, Inositol phosphorylceramide synthase catalytic subunit AUR1; assay: Inhibition of Saccharomyces cerevisiae inositol phosphorylceramide synthase
[7] = target: T4, Aureobasidin-resistance protein (Neosartorya fumigata (Aspergillus fumigatus), UniProt Q9Y745); assay: Inhibition of Aspergillus fumigatus inositol phosphorylceramide synthase
T4 sequence (Q9Y745 whole entry): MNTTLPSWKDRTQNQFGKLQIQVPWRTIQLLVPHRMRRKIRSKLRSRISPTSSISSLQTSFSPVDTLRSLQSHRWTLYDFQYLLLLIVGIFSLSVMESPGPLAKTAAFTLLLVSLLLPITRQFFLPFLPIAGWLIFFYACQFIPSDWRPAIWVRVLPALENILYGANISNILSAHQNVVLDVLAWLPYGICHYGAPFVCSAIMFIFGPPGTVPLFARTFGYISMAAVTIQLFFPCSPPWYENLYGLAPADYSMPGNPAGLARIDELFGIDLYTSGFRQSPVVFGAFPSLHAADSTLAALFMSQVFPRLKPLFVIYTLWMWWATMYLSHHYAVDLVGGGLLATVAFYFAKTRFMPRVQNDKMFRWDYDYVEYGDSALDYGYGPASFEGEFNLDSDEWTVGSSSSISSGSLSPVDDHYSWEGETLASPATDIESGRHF

[8] = target: T2, Inositol phosphorylceramide synthase (Candida albicans (strain SC5314 / ATCC MYA-2876) (Yeast)); assay: Irreversible inhibition of Candida albicans ATCC 38247 inositol phosphorylceramide synthase
[9] = target: T2, Inositol phosphorylceramide synthase (Candida albicans (strain SC5314 / ATCC MYA-2876) (Yeast)); details: ATCC 38247
Description: as §1

[10] = target: T1, Inositol phosphorylceramide synthase; assay: Reversible inhibition of Candida albicans inositol phosphorylceramide synthase
[11] = target: T3, Inositol phosphorylceramide synthase catalytic subunit AUR1; assay: Reversible inhibition of Saccharomyces cerevisiae inositol phosphorylceramide synthase

Structure (SMILES)	Ki [1]	inhibition [2]	IC50 [5]	IC50 [3]	IC50 [4]	further results
CCCCCCCCC(=O)N(C)C(C(=O)O[C@@H](C(=O)N(C)CCc1ccc(OC)c(OC)c1)c1ccccc1)C(C)(C)O (stereo partly drawn)	11800 nM					
COc1ccc(CCN(C)C(=O)[C@H](OC(=O)C(N(C)C(=O)CCCCCc2ccccc2)C(C)(C)O)c2ccccc2)cc1OC (stereo partly drawn)	10500 nM					
CCCC(CCC)C(=O)N(C)C(C(=O)O[C@@H](C(=O)N(C)CCc1ccc(OC)c(OC)c1)c1ccccc1)C(C)(C)O (stereo partly drawn)	7900 nM					
CC[C@@H](C)[C@@H]1NC(=O)[C@@H]2CCCN2C(=O)[C@H](Cc2ccccc2)N(C)C(=O)[C@H](Cc2ccccc2)NC(=O)[C@H](C(C)C)N(C)C(=O)[C@@H]([C@H](C)CC)OC(=O)[C@H](C(C)(C)O)N(C)C(=O)[C@H](CC(C)C)NC(=O)[C@H](C(C)C)N(C)C1=O [AUREOBASIDIN A] (cyclo(F[NMeF]P[aIle][NMeV]L[NMeVal(β-OH)][X1][NMeV]))	0.18 nM	tde	0.2 nM			Ki [3]: 0.23 nM; Ki [4]: 1400 nM; Ki [5]: 0.55 nM; IC50 [6]: 0.2 nM; IC50 [7]: 0.2 nM; inhibition [8]: Active; Kinact [9]: 2.5 /us and 1.8 /us
CCCCCCCCCC[C@H](C)[C@@H](O)[C@@H](C)/C=C(C)/C=C(\C)C(=O)[C@H](C)/C=C(\C)C(=O)O[C@H](CO)[C@@H](O)[C@H](O)C(=O)O [KHAFREFUNGIN]	0.43 nM	tde	0.6 nM	43 nM	11300 nM	
C=C1/C=C(\C)[C@H](CC)CC(=O)[C@H](C)C(=O)[C@@](O)(CO)C/C(OC)=C/[C@@H](C)C1 [RUSTMICIN]	16 nM			13 nM	27200 nM	IC50 [10]: 3.8 nM; IC50 [11]: 3.8 nM
